The subject of one assay is Pythium ultimum. Nature of the assay: Pythium ultimum / liquid culture (seedling damping off). The following applies: Globisporangium ultimum, growth inhibition determined photometrically, compared to untreated control. Type of assay: cell-based. How it is done:
Pythium ultimum/Liquid Culture (Seedling Damping Off)
Mycelia fragments and oospores of a newly grown liquid culture of the fungus are directly mixed into nutrient broth (PDB potato dextrose broth). After placing a (DMSO) solution of test compound into a microtiter plate (96-well format), the nutrient broth containing the fungal mycelia/spore mixture is added.
The test plates are incubated at 24° C. and the inhibition of growth is determined photometrically 2-3 days after application.

The test system of a further assay is Phytophthora infestans. Description: whole plant or invertebrate. Conditions: in Solanum lycopersicum, foliar, read-out: control of Phytophthora infestans. It counts as in vivo.
Another assay has as its system Plasmopara viticola. Description: whole plant or invertebrate. Type of assay: in vivo. The following applies: foliar.

Structures are written as SMILES.

One may read the inhibition of growth as how much of the control response was suppressed. `COC(=O)Nc1ccc(-c2cnc3c(C)cc(C(=O)N4CCN(C)c5cc(F)ccc54)cn23)cn1` [Compound 2, methyl N-[5-[6-(6-fluoro-4-methyl-2,3-dihydroquinoxaline-1-carbonyl)-8-methyl-imidazo[1,2-a]pyridin-3-yl]-2-pyridyl]carbamate] came in with an inhibition of growth at 20 ppm in the assay with Pythium ultimum of at least 80%. Besides, the pest or weed control at 200 ppm in the assay on Phytophthora infestans and in the assay on Plasmopara viticola was at least 80% each time.

`COC(=O)Nc1ccc(-c2cnc3ccc(C(=O)N4CCN(C)c5cc(F)ccc54)cn23)cn1` [Compound 3, methyl N-[5-[6-(6-fluoro-4-methyl-2,3-dihydroquinoxaline-1-carbonyl)imidazo[1,2-a]pyridin-3-yl]-2-pyridyl]carbamate]: in the assay on Pythium ultimum, the inhibition of growth at 20 ppm was at least 80%. The pest or weed control at 200 ppm with Phytophthora infestans and in the assay on Plasmopara viticola was at least 80% in each case.

Compound `COC(=O)Nc1ccc(-c2cnc3ccc(C(=O)N4CCCc5c(C(=O)OC)cccc54)cn23)cn1` [Compound 7, methyl 1-[3-[6-(methoxycarbonylamino)-3-pyridyl]imidazo[1,2-a]pyridine-6-carbonyl]-3,4-dihydro-2H-quinoline-5-carboxylate] displayed an inhibition of growth at 20 ppm in the assay on Pythium ultimum of at least 80%. In addition, the pest or weed control at 200 ppm with Plasmopara viticola is at least 80%.

As for `COC(=O)Nc1ccc(-c2cnc3ccc(C(=O)N4CC(C(=O)OC)Cc5ccccc54)cn23)cn1` (stereo not shown) [Compound 11, methyl 1-[3-[6-(methoxycarbonylamino)-3-pyridyl]imidazo[1,2-a]pyridine-6-carbonyl]-3,4-dihydro-2H-quinoline-3-carboxylate], the inhibition of growth at 20 ppm with Pythium ultimum is at least 80%. For the same compound, the pest or weed control at 200 ppm in the assay with Phytophthora infestans and in the assay with Plasmopara viticola was at least 80% each time.

Consider `COC(=O)Nc1ccc(-c2cnc3ccc(C(=O)N4CCCc5c4ccc(F)c5F)cn23)cn1` [Compound 21, methyl N-[5-[6-(5,6-difluoro-3,4-dihydro-2H-quinoline-1-carbonyl)imidazo[1,2-a]pyridin-3-yl]-2-pyridyl]carbamate], for which the inhibition of growth at 20 ppm with Pythium ultimum was at least 80%. Moreover, the pest or weed control at 200 ppm in the assay on Phytophthora infestans and with Plasmopara viticola was at least 80% each time.

Consider `COC(=O)Nc1ccc(-c2cnc3ccc(C(=O)N(C)c4ccc(F)cc4OC)cn23)cn1` [Compound 30, methyl N-[5-[6-[(4-fluoro-2-methoxy-phenyl)-methyl-carbamoyl]imidazo[1,2-a]pyridin-3-yl]-2-pyridyl]carbamate], for which the inhibition of growth at 20 ppm in the assay with Pythium ultimum was at least 80%. In addition, the pest or weed control at 200 ppm in the assay on Phytophthora infestans and in the assay with Plasmopara viticola was at least 80% each time.

Turning to `CCOC(=O)C1Cc2cc(F)ccc2N(C(=O)c2ccc3ncc(-c4ccc(NC(=O)OC)nc4)n3c2)C1` (stereo not shown) [Compound 35, ethyl 6-fluoro-1-[3-[6-(methoxycarbonylamino)-3-pyridyl]imidazo[1,2-a]pyridine-6-carbonyl]-3,4-dihydro-2H-quinoline-3-carboxylate], in the assay with Pythium ultimum, the inhibition of growth at 20 ppm was at least 80%. For the same compound, the pest or weed control at 200 ppm with Phytophthora infestans and in the assay on Plasmopara viticola was at least 80% throughout.

`COC(=O)Nc1ccc(-c2cnc3ccc(C(=O)N4CCN(C5CC5)c5cc(F)ccc54)cn23)cn1` [Compound 51, methyl N-[5-[6-(4-cyclopropyl-6-fluoro-2,3-dihydroquinoxaline-1-carbonyl)imidazo[1,2-a]pyridin-3-yl]-2-pyridyl]carbamate] gave an inhibition of growth at 20 ppm in the assay with Pythium ultimum of at least 80%. Moreover, the pest or weed control at 200 ppm in the assay on Phytophthora infestans and with Plasmopara viticola was at least 80% throughout.

As to `COC(=O)Nc1ccc(-c2cnc3ccc(C(=O)N4CCCc5cc(F)c(OC)cc54)cn23)cn1` [Compound 64, methyl N-[5-[6-(6-fluoro-7-methoxy-3,4-dihydro-2H-quinoline-1-carbonyl)imidazo[1,2-a]pyridin-3-yl]-2-pyridyl]carbamate], the inhibition of growth at 20 ppm with Pythium ultimum was at least 80%. Also, the pest or weed control at 200 ppm with Phytophthora infestans and in the assay on Plasmopara viticola was at least 80% in each case.

The compound `COC(=O)Nc1ccc(-c2cnc3ccc(C(=O)N4CCCc5cc(F)ccc54)cn23)cn1` [Compound 66, methyl N-[5-[6-(6-fluoro-3,4-dihydro-2H-quinoline-1-carbonyl)imidazo[1,2-a]pyridin-3-yl]-2-pyridyl]carbamate] returned an inhibition of growth at 20 ppm in the assay with Pythium ultimum of at least 80%. The pest or weed control at 200 ppm in the assay on Phytophthora infestans and with Plasmopara viticola was at least 80% in each case.

Take `COC(=O)Nc1ccc(-c2cnc3ccc(C(=O)N(C)c4ccc(F)cc4F)cn23)cc1` [Compound 78, methyl N-[4-[6-[(2,4-difluorophenyl)-methyl-carbamoyl]imidazo[1,2-a]pyridin-3-yl]phenyl]carbamate]: in the assay with Pythium ultimum, the inhibition of growth at 20 ppm was at least 80%. In the assay with Plasmopara viticola, the pest or weed control at 200 ppm is at least 80%.

Values taken from US20260271933A1 (priority 2023, published 2026).
